A word on the solubility: it is the dissolved amount per volume that the medium holds.

The record followed here is patent publication US20210246157A1, “CAMPTOTHECIN DERIVATIVES AND PREPARATION METHODS AND APPLICATIONS THEREOF” (priority 2018, published 2021).

pIC50: −log10 of the molar value. Converted amounts (≈) assume the structure as drawn. Read-outs that look alike come from different tables or passages of the source.

One data set has as its system H1975. Nature of the data set: Cytotoxicity test (MTT, 72 h). Conditions: Homo sapiens, NCI-H1975, 72 h, read-out: 50% Inhibiting Concentration value (IC50).
The next data set relates to SKOV-3. Kind of data set: Cytotoxicity test (MTT, 72 h). Conditions: Homo sapiens, SK-OV-3, 72 h, read-out: 50% Inhibiting Concentration value (IC50).
Data set [1] in a line: Solubility test, equilibrium method, UV-visible spectrophotometry. Conditions: thermodynamic from solid. It is filed as physicochemical. The method, then:
The solubility test is carried out by equilibrium method. […] An appropriate amount of the compound is weighed and dissolved in 1 mL of methanol solution to prepare a control solution with a certain concentration (C0). The concentration of test solution is calculated according to the following formula: Cx=(Ax/A0)C0, wherein Cx is concentration of test solution, Ax is absorbance of test solution, C0 is concentration of control solution, and A0 is absorbance of control solution.

The next data set has as its system SW-480. Kind of data set: Cytotoxicity test (MTT, 72 h). Conditions: Homo sapiens, SW480, 72 h, read-out: 50% Inhibiting Concentration value (IC50).
Another data set has as its system HCT-116. Nature of the data set: Cytotoxicity test (MTT, 72 h). Conditions: Homo sapiens, HCT-116, 72 h, read-out: 50% Inhibiting Concentration value (IC50).
The test system of the next data set is HT-29. Kind of data set: Cytotoxicity test (MTT, 72 h). Conditions: Homo sapiens, HT-29, 72 h, read-out: 50% Inhibiting Concentration value (IC50).
The next data set deals with MDA-MB-231. Nature of the data set: Cytotoxicity test (MTT, 72 h). Conditions: Homo sapiens, MDA-MB-231, 72 h, read-out: 50% Inhibiting Concentration value (IC50).
For a further data set, the system named is PC3. Kind of data set: Cytotoxicity test (MTT, 72 h). The conditions noted are these: Homo sapiens, PC-3, 72 h, read-out: 50% Inhibiting Concentration value (IC50).
In another data set the test system is HepG2. Kind of data set: Cytotoxicity test (MTT, 72 h). Conditions: Homo sapiens, HepG2, 72 h, read-out: 50% Inhibiting Concentration value (IC50).
Another data set concerns TPC-1. Nature of the data set: Cytotoxicity test (MTT, 72 h). The conditions noted are these: Homo sapiens, TPC1, 72 h, read-out: 50% Inhibiting Concentration value (IC50).
Another data set deals with ECA-109. Kind of data set: Cytotoxicity test (MTT, 72 h). The conditions noted are these: Homo sapiens, ECa-109, 72 h, read-out: 50% Inhibiting Concentration value (IC50).
The next data set relates to A549. Kind of data set: Cytotoxicity test (MTT, 72 h). The conditions noted are these: Homo sapiens, A549, 72 h, read-out: 50% Inhibiting Concentration value (IC50).
A further data set concerns Hela. Kind of data set: Cytotoxicity test (MTT, 72 h). The conditions noted are these: Homo sapiens, read-out: 50% Inhibiting Concentration value (IC50).
A further data set concerns PANC-1. Nature of the data set: Cytotoxicity test (MTT, 72 h). The conditions noted are these: Homo sapiens, PANC-1, 72 h, read-out: 50% Inhibiting Concentration value (IC50).
For another data set, the system named is 143B. Nature of the data set: Cytotoxicity test (MTT, 72 h). Conditions: Homo sapiens, read-out: 50% Inhibiting Concentration value (IC50).
The test system of a further data set is BGC-823. Nature of the data set: Cytotoxicity test (MTT, 72 h). The conditions noted are these: Homo sapiens, BGC-823, 72 h, read-out: 50% Inhibiting Concentration value (IC50).
The next data set relates to K562. Nature of the data set: Cytotoxicity test (MTT, 72 h). Conditions: Homo sapiens, K562, 72 h, read-out: 50% Inhibiting Concentration value (IC50).
[2] abbreviates: aqueous buffer, PBS pH 7.4, read-out: Solubility in PBS (pH = 7.4).
The mark [3] stands for this setting: aqueous with cosolvent or surfactant or cyclodextrin, 0.1% aqueous solution of Tween-80, read-out: Solubility in 0.1% Tween-80.
The mark [4] stands for this setting: saline or isotonic, normal saline, read-out: Solubility in Normal Saline (NS).
[5] abbreviates: water, read-out: Solubility in Water.

Experimental for 143B: (§1) In order to investigate the antitumor activities of the compounds, a variety of tumor cell lines for test are selected. Cells at logarithmic growth period are inoculated in a 96-well plate overnight, then drugs with a certain gradient concentrations are added, and incubation is carried out in a cell culture chamber (5% CO2, 37° C.) for 72 h.
Experimental for A549: as §1
Experimental for BGC-823: as §1
Experimental for ECA-109: as §1
Experimental for H1975: as §1
Experimental for HCT-116: as §1
Experimental for HT-29: (§2) Cells at logarithmic growth period are inoculated in a 96-well plate overnight, then drugs with a certain gradient concentrations are added, and incubation is carried out in a cell culture chamber (5% CO2, 37° C.) for 72 h.
Experimental for Hela: as §1
Experimental for HepG2: as §1
Experimental for K562: as §1
Experimental for MDA-MB-231: as §1
Experimental for PANC-1: as §2
Experimental for PC3: as §1
Experimental for SKOV-3: as §2
Experimental for SW-480: as §2
Experimental for TPC-1: as §2

Turning to `CCc1c2c(nc3ccc(OC(=O)NCCOCc4cn([C@H]5O[C@@H](CO)[C@H](O)[C@@H](O)[C@@H]5O)nn4)cc13)-c1cc3c(c(=O)n1C2)COC(=O)[C@]3(O)CC` [Compound 66], the pIC50 in the data set on H1975 was 5.07; in the data set on SKOV-3, 5.71; in the data set with SW-480 it was 6.67; with HCT-116 it was 6.07; in the data set with HT-29, 5.29; with MDA-MB-231, 5.87. In addition, the pIC50 was 5.33 in the data set with PC3; 5.79 in the data set on HepG2; 4.99 in the data set on TPC-1; 5.37 in the data set with ECA-109; 5.25 in the data set with A549; 5.17 with Hela. Moreover, the pIC50 in the data set on PANC-1 was 5.17; in the data set on 143B it was 5.15; in the data set on BGC-823, 6.74; with K562 it was 6.15. For the same compound, the solubility was 2880 µg/mL (≈ 3980 µM) in [1] (setting [2]), 1140 µg/mL (≈ 1580 µM) in data set [1] (setting [3]), 1590 µg/mL (≈ 2210 µM) in data set [1] (setting [4]) and 979 µg/mL (≈ 1350 µM) in data set [1] (setting [5]).

Take `CCc1c2c(nc3ccc(OC(=O)NCCOCCOCc4cn([C@H]5O[C@@H](CO)[C@H](O)[C@@H](O)[C@@H]5O)nn4)cc13)-c1cc3c(c(=O)n1C2)COC(=O)[C@]3(O)CC` [Compound 73]: the pIC50 was 5.15 in the data set with H1975; 5.54 in the data set on SKOV-3; 6.06 in the data set with SW-480; 6.06 in the data set on HCT-116; 5.50 in the data set with HT-29; 5.69 in the data set on MDA-MB-231. Moreover, the pIC50 in the data set with PC3 was 5.31; in the data set with HepG2 it was 5.62; in the data set on TPC-1 it was 5.07; with ECA-109, 5.58; in the data set with A549, 5.23; in the data set with Hela, 5.16. Also, the pIC50 in the data set on PANC-1 was 5.16; with 143B, 5.23; in the data set on BGC-823, 6.14; in the data set on K562 it was 6.13. Moreover, the solubility in data set [1] (setting [2]) was found to be 414 µg/mL (≈ 540 µM); in data set [1] (setting [3]) it was 1260 µg/mL (≈ 1650 µM); in data set [1] (setting [4]), 1440 µg/mL (≈ 1880 µM); in [1] (setting [5]), 3580 µg/mL (≈ 4670 µM).

Consider `CCc1c2c(nc3ccc(OC(=O)NCCOCCOCc4cn(CCO[C@H]5O[C@@H](CO)[C@H](O)[C@@H](O)[C@@H]5O)nn4)cc13)-c1cc3c(c(=O)n1C2)COC(=O)C3(O)CC` (some centres unmarked) [Compound 74], for which the pIC50 in the data set on H1975 is 5.17; in the data set on SKOV-3, 5.12; in the data set with SW-480, 5.69; in the data set on HCT-116, 5.60; with HT-29, 5.10; with MDA-MB-231 it was 5.28. The pIC50 in the data set with PC3 is 5.11; in the data set with HepG2 it was 5.20; with TPC-1, 5.09; in the data set with ECA-109, 5.18; with A549 it was 5.03; in the data set with Hela, 4.95. Besides, the pIC50 was 4.95 in the data set on PANC-1, 5.25 with 143B, 5.76 with BGC-823 and 5.68 in the data set on K562. Moreover, the solubility came to 565 µg/mL (≈ 696 µM) in data set [1] (setting [2]), 2750 µg/mL (≈ 3390 µM) in data set [1] (setting [3]), 3950 µg/mL (≈ 4880 µM) in [1] (setting [4]) and 792 µg/mL (≈ 977 µM) in data set [1] (setting [5]).

On to `CCc1c2c(nc3ccc(OC(=O)NCCCOCc4cn([C@H]5O[C@@H](CO)[C@H](O)[C@@H](O)[C@@H]5O)nn4)cc13)-c1cc3c(c(=O)n1C2)COC(=O)[C@]3(O)CC` [Compound 80], for which the pIC50 in the data set on H1975 was 4.97; in the data set with SKOV-3, 4.95; in the data set with SW-480, 5.85; in the data set on HCT-116, 5.29; in the data set on HT-29 it was 5.16; in the data set on MDA-MB-231, 5.11. The pIC50 in the data set with PC3 was 5.29; with HepG2, 5.03; with TPC-1, 4.89; in the data set on ECA-109, 5.24; with A549, 5.21; in the data set with Hela, 5.13. In addition, the pIC50 was 5.13 in the data set with PANC-1, 5.05 in the data set on 143B, 5.93 in the data set on BGC-823 and 5.37 in the data set with K562. Also, the solubility in data set [1] (setting [2]) came to 792 µg/mL (≈ 1080 µM); in data set [1] (setting [3]), 961 µg/mL (≈ 1300 µM); in [1] (setting [4]) it was 642 µg/mL (≈ 871 µM); in [1] (setting [5]), 82.5 µg/mL (≈ 112 µM).

With `CCc1c2c(nc3ccc(OC(=O)NCCCOCc4cn(CCO[C@H]5O[C@@H](CO)[C@H](O)[C@@H](O)[C@@H]5O)nn4)cc13)-c1cc3c(c(=O)n1C2)COC(=O)[C@]3(O)CC` [Compound 81], the pIC50 in the data set on H1975 was 5.01; in the data set with SKOV-3, 5.12; in the data set on SW-480, 6.07; with HCT-116, 5.14; in the data set with HT-29, 5.03; in the data set with MDA-MB-231 it was 5.28. In addition, the pIC50 in the data set with PC3 is 5.16; with HepG2 it was 5.20; in the data set on TPC-1, 4.94; with ECA-109, 5.11; in the data set on A549, 5.08; with Hela, 5.00. The pIC50 with PANC-1 was 5.00; with 143B it was 5.09; in the data set on BGC-823 it was 6.15; with K562, 5.22. For the same compound, the solubility in data set [1] (setting [2]) was determined as 895 µg/mL (≈ 1150 µM); in [1] (setting [3]) it was 1210 µg/mL (≈ 1550 µM); in data set [1] (setting [4]), 985 µg/mL (≈ 1260 µM); in [1] (setting [5]) it was 985 µg/mL (≈ 1260 µM).

With `CCc1c2c(nc3ccc(OC(=O)NCCCCCOCc4cn([C@H]5O[C@@H](CO)[C@H](O)[C@@H](O)[C@@H]5O)nn4)cc13)-c1cc3c(c(=O)n1C2)COC(=O)[C@]3(O)CC` [Compound 87], the pIC50 in the data set with H1975 was 5.29; in the data set with SKOV-3, 5.05; in the data set with SW-480, 5.94; in the data set on HCT-116, 5.82; in the data set on HT-29 it was 5.13; in the data set on MDA-MB-231, 5.21. The pIC50 was 5.28 in the data set with PC3; 5.13 in the data set with HepG2; 5.21 in the data set with TPC-1; 5.21 in the data set with ECA-109; 5.20 with A549; 5.12 in the data set with Hela. The pIC50 was 5.12 in the data set on PANC-1, 5.37 in the data set with 143B, 6.02 with BGC-823 and 5.90 with K562. Moreover, the solubility amounted to 910 µg/mL (≈ 1190 µM) in [1] (setting [2]), 1110 µg/mL (≈ 1450 µM) in data set [1] (setting [3]), 894 µg/mL (≈ 1170 µM) in [1] (setting [4]) and 1050 µg/mL (≈ 1370 µM) in data set [1] (setting [5]).

As to `CCc1c2c(nc3ccc(OC(=O)NCCCCCOCc4cn(CCO[C@H]5O[C@@H](CO)[C@H](O)[C@@H](O)[C@@H]5O)nn4)cc13)-c1cc3c(c(=O)n1C2)COC(=O)[C@]3(O)CC` [Compound 88], the pIC50 in the data set with H1975 was 5.16; in the data set on SKOV-3 it was 5.13; with SW-480, 6.06; in the data set on HCT-116 it was 5.56; in the data set with HT-29, 5.04; in the data set on MDA-MB-231, 5.29. Further, the pIC50 with PC3 was 5.12; in the data set with HepG2 it was 5.21; in the data set with TPC-1, 5.08; with ECA-109, 5.12; in the data set with A549 it was 5.04; in the data set on Hela, 4.96. Also, the pIC50 in the data set on PANC-1 was 4.96; in the data set with 143B it was 5.24; in the data set on BGC-823 it was 6.14; with K562 it was 5.64. Also, the solubility in data set [1] (setting [2]) amounted to 895 µg/mL (≈ 1110 µM); in data set [1] (setting [3]) it was 1350 µg/mL (≈ 1670 µM); in data set [1] (setting [4]), 870 µg/mL (≈ 1080 µM); in data set [1] (setting [5]), 1130 µg/mL (≈ 1390 µM).
